Each compound was assayed against T1, human RXFP1 (Homo sapiens, UniProt Q9HBX9) (assay: hRXFP1 HEK293 cAMP assay (HTRF)). Settings: HEK293 cells stably expressing human RXFP1, 30 min at room temperature.
T1 construct: expressed in transfected cells
T1 sequence (Q9HBX9 1-757): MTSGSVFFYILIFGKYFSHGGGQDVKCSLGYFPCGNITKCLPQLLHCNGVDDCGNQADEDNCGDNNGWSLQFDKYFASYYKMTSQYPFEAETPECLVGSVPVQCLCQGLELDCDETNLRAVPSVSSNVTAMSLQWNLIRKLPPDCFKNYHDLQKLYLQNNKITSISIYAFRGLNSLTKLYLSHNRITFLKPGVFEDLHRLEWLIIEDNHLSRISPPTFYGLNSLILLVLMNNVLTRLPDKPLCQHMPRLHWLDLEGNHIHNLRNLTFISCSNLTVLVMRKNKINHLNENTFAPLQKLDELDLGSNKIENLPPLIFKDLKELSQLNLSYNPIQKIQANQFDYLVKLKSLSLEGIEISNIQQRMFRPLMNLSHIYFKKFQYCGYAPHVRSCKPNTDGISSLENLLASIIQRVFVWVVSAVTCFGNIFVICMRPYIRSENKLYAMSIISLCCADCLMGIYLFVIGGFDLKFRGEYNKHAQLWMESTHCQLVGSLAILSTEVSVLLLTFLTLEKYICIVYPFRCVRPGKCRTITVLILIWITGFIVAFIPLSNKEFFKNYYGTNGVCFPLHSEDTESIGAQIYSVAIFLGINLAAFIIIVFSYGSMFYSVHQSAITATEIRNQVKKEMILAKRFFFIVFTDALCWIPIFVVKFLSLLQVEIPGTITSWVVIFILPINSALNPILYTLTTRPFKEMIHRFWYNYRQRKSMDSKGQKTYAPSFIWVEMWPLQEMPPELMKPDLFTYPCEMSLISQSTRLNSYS
Type: cell-based
Procedure, shortened: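 HEK293 cells stably expressing human RXFP1 (1500 cells/well) in HBSS/20 mM HEPES/0.05% BSA/0.5 mM IBMX. Compounds were tested at 0.010 nM–50 μM final (2% DMSO) for 30 min at room temperature. cAMP was measured by HTRF and values derived by 4-parameter logistic fit.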

| EC50 [nM] | Compound |
| --- | --- |
| 21 | COc1ccc([C@H]2C[C@@H](O)C2)cc1C(=O)NC1C2CCC(/C2=C/C2CC2)[C@@H]1C(=O)Nc1ccc(F)c(C(F)(F)F)c1 (stereo partly drawn) [Example 147, (2S,3R,7Z)-7-(cyclopropylmethyli-dene)-N-[4-fluoro-3-(trifluoromethyl)phe-nyl]-3-{2-methoxy-5-[(1r,3r)-3-hydroxycyclobutyl]benzamido}bicyclo [2.2.1]heptane-2-carboxamide] |
| 6 | COc1ccc([C@H]2C[C@H](O)C2)cc1C(=O)NC1C2CCC(/C2=C/C2CC2)[C@@H]1C(=O)Nc1ccc(F)c(C(F)(F)F)c1 (stereo partly drawn) [Example 148, (2S,3R,7Z)-7-(cyclopropylmethyli-dene)-N-[4-fluoro-3-(trifluoromethyl)phe-nyl]-3-{2-methoxy-5-[(1r,3r)-3-hydroxycyclobutyl]benzamido}bicyclo [2.2.1]heptane-2-carboxamide] |
| 1620 | COc1ccc(C2CC3(CC(NC(=O)OC(C)(C)C)C3)C2)cc1C(=O)NC1C2CCC(/C2=C/C(F)(F)F)[C@@H]1C(=O)Nc1ccc(F)c(C(F)(F)F)c1 (stereo partly drawn) [Example 153, tert-butyl N-[6-(3-{[(2R,3S,7Z)-3-{[4-fluoro-3-(trifluoromethyl)phe-nyl]carbamoyl}-7-(2,2,2-trifluoroethylidene)bi-cyclo[2.2.1]heptan-2-yl]carbamoyl}-4-methoxyphenyl)spiro [3.3]heptan-2-yl]carbamate] |
| 1050 | COc1ccc(C2CC3(CC(N)C3)C2)cc1C(=O)NC1C2CCC(/C2=C/C(F)(F)F)[C@@H]1C(=O)Nc1ccc(F)c(C(F)(F)F)c1 (stereo partly drawn) [Example 154, (2S,3R,7Z)-3-(5-{6-aminospiro[3.3]hept-an-2-yl}-2-methoxybenzamido)-N-[4-fluoro-3-(trifluoromethyl)phe-nyl]-7-(2,2,2-trifluoroethylidene)bi-cyclo[2.2.1]heptane-2-carboxamide] |
| 427 | COc1ccc(Cc2ccc(F)cc2)cc1C(=O)N[C@H]1[C@@H](C(=O)Nc2ccc(F)c(C(F)(F)F)c2)[C@H]2CC[C@@H]1/C2=C\C(F)(F)F [Example 155, (1R,2S,3R,4R,Z)—N-(4-fluoro-3-(trifluoromethyl)phenyl)-3-(5-(4-fluorobenzyl)-2-methoxybenzamido)-7-(2,2,2-trifluoroethylidene) bicyclo[2.2.1]heptane-2-carboxamide] |
| 464 | COC(=O)c1ccc(F)cc1Cc1ccc(OC)c(C(=O)NC2C3CCC(/C3=C/C(F)(F)F)[C@@H]2C(=O)Nc2ccc(F)c(C(F)(F)F)c2)c1 (stereo partly drawn) [Example 156, methyl 4-fluoro-2-[(3-{[(2R,3S,7Z)-3-{[4-fluoro-3-(trifluoromethyl)phe-nyl]carbamoyl}-7-(2,2,2-trifluoroethylidene)bi-cyclo[2.2.1]heptan-2-yl]carbamoyl}-4-methoxyphenyl)meth-yl]benzoate] |
| 54 | COc1ccc(CCCO)cc1C(=O)N[C@H]1[C@@H](C(=O)Nc2ccc(F)c(C(F)(F)F)c2)[C@H]2CC[C@@H]1/C2=C\C(C)C [Example 157, (1R,2S,3R,4R,Z)—N-(4-fluoro-3-(trifluoromethyl)phenyl)-3-(5-(3-hydroxypropyl)-2-methoxybenzamido)-7-(2-methylpropylidene) bicyclo[2.2.1]heptane-2-carboxamide] |
| 9 | COc1ccc(CCC(C)(C)O)cc1C(=O)NC1C2CCC(/C2=C/C(C)C)[C@@H]1C(=O)Nc1ccc(F)c(C(F)(F)F)c1 (some centres unmarked) [Example 158, (7Z)-N-[4-fluoro-3-(trifluoromethyl)phe-nyl]-3-[5-(3-hydroxy-3-methylbutyl)-2-methoxybenzamido]-7-(2-methylpropylidene)bi-cyclo[2.2.1]heptane-2-carboxamide] |
| 43 | COc1ccc(CCCO)cc1C(=O)NC1C2CCC(/C2=C/C2CC(F)(F)C2)[C@@H]1C(=O)Nc1ccc(F)c(C(F)(F)F)c1 (stereo partly drawn) [Example 159, (2S,3R,7Z)-7-[(3,3-difluorocyclobutyl)methylidene]-N-[4-fluoro-3-(trifluoromethyl)phe-yl]-3-[5-(3-hydroxypropyl)-2-methoxybenzamideo] bicyclo[2.2.1]heptane-2-carboxamide] |
| 51 | COc1ccc(CCC(C)(C)O)cc1C(=O)NC1C2CCC(/C2=C/C2CC(F)(F)C2)[C@@H]1C(=O)Nc1ccc(F)c(C(F)(F)F)c1 (stereo partly drawn) [Example 160, (2S,3R,7Z)-7-[(3,3-difluorocyclobutyl)methylidene]-N-[4-fluoro-3-(trifluoromethyl)phe-nyl]-3-[5-(3-hydroxy-3-methylbutyl)-2-methoxybenzamido] bicyclo[2.2.1]heptane-2-carboxamide] |
| 1160 | COCC/C=C1\C2CCC1[C@H](C(=O)Nc1ccc(F)c(C(F)(F)F)c1)C2NC(=O)c1cc(CCCO)ccc1OC (some centres unmarked) [Example 161, (7Z)-N-[4-fluoro-3-(trifluoromethyl)phe-nyl]-3-[5-(3-hydroxypropyl)-2-methoxybenzamido]-7-(3-methoxypropylidene) bicyclo[2.2.1]heptane-2-carboxamide] |
| 1240 | COCC/C=C1\C2CCC1[C@H](C(=O)Nc1ccc(F)c(C(F)(F)F)c1)C2NC(=O)c1cc(CCC(C)(C)O)ccc1OC (some centres unmarked) [Example 162, (7Z)-N-[4-fluoro-3-(trifluoromethyl)phe-nyl]-3-[5-(3-hydroxy-3-methylbutyl)-2-methoxybenzamido]-7-(3-methoxypropylidene) bicyclo[2.2.1]heptane-2-carboxamide] |
| 278 | COc1ccc(CCC(C)(C)O)cc1C(=O)NC1C2CCC(/C2=C/CC(C)(C)C)[C@@H]1C(=O)Nc1ccc(F)c(C(F)(F)F)c1 (some centres unmarked) [Example 163, (7Z)-7-(3,3-dimethylbutylidene)-N-[4-fluoro-3-(trifluoromethyl)phe-nyl]-3-[5-(3-hydroxy-3-methylbutyl)-2-methoxybenzamido] bicyclo[2.2.1]heptane-2-carboxamide] |
| 218 | COc1ccc(CCCO)cc1C(=O)NC1C2CCC(/C2=C/C2CCOCC2)[C@@H]1C(=O)Nc1ccc(F)c(C(F)(F)F)c1 (some centres unmarked) [Example 165, (7Z)-N-[4-fluoro-3-(trifluoromethyl)phe-nyl]-3-[5-(3-hydroxypropyl)-2-methoxybenzamido]-7-[(oxan-4-yl)methylidene]bicy-clo[2.2.1]heptane-2-carboxamide] |
| 129 | COc1ccc(CCC(C)(C)O)cc1C(=O)NC1C2CCC(/C2=C/C2CCOCC2)[C@@H]1C(=O)Nc1ccc(F)c(C(F)(F)F)c1 (some centres unmarked) [Example 166, (7Z)-N-[4-fluoro-3-(trifluoromethyl)phe-nyl]-3-[5-(3-hydroxy-3-methylbutyl)-2-methoxybenzamido]-7-[(oxan-4-yl)methylidene]bicy-clo[2.2.1]heptane-2-carboxamide] |
| 11 | COc1ccc(CCCO)cc1C(=O)NC1C2CCC(/C2=C/C2CCCC2)[C@@H]1C(=O)Nc1ccc(F)c(C(F)(F)F)c1 (some centres unmarked) [Example 167, (7Z)-7-(cyclopentylmethyli-dene)-N-[4-fluoro-3-(trifluoromethyl)phe-nyl]-3-[5-(3-hydroxypropyl)-2-methoxybenzamido] bicyclo[2.2.1]heptane-2-carboxamide] |
| 8 | COc1ccc(CCC(C)(C)O)cc1C(=O)NC1C2CCC(/C2=C/C2CCCC2)[C@@H]1C(=O)Nc1ccc(F)c(C(F)(F)F)c1 (some centres unmarked) [Example 168, (7Z)-7-(cyclopentylmethyli-dene)-N-[4-fluoro-3-(trifluoromethyl)phe-nyl]-3-[5-(3-hydroxy-3-methylbutyl)-2-methoxybenzamido] bicyclo[2.2.1]heptane-2-carboxamide] |
| 102 | COc1ccc(CCC(C)(C)O)cc1C(=O)NC1C2CCC(/C2=C/C2CCOC2)[C@@H]1C(=O)Nc1ccc(F)c(C(F)(F)F)c1 (some centres unmarked) [Example 169, (7Z)-N-[4-fluoro-3-(trifluoromethyl)phe-nyl]-3-[5-(3-hydroxy-3-methylbutyl)-2-methoxybenzamido]-7-[(oxolan-3-yl)methylidene]bicy-clo[2.2.1]heptane-2-carboxamide] |
| 66 | COc1ccc(CCC(C)(C)O)cc1C(=O)NC1C2CCC(/C2=C/CC2CCC2)[C@@H]1C(=O)Nc1ccc(F)c(C(F)(F)F)c1 (some centres unmarked) [Example 174, (7Z)-7-(2-cyclobutylethylidene)-N-[4-fluoro-3-(trifluoromethyl)phe-nyl]-3-[5-(3-hydroxy-3-methylbutyl)-2-methoxybenzamido] bicyclo[2.2.1]heptane-2-carboxamide] |
| 311 | COc1ccc(CCC(C)(C)O)cc1C(=O)NC1C2CCC(/C2=C/CC(F)F)[C@@H]1C(=O)Nc1ccc(F)c(C(F)(F)F)c1 (some centres unmarked) [Example 175, (7Z)-7-(3,3-difluoropropylidene)-N-[4-fluoro-3-(trifluoromethyl)phe-nyl]-3-[5-(3-hydroxy-3-methylbutyl)-2-methoxybenzamido] bicyclo[2.2.1]heptane-2-carboxamide] |

— US20250268903A1, “RXFP1 AGONISTS” (BRISTOL-MYERS SQUIBB COMPANY, priority 2021, published 2025)
